Experiment [1] relates to mice (phenylquinone-induced stretching or writhing syndrome). The experiment is described as follows: standard phenylquinone writhing test (PQW), oral analgesia in mice. The experiment is classed as in vivo, female white mice. The settings on record: for ED50: Mus musculus, po. As to the method:
A standard procedure for detecting and comparing the analgesic activity of compounds in this series for which there is good correlation with human efficacy is the standard phenylquinone writhing test (PQW) modified from Siegmund, et al., Proc. Soc. Exp. Biol. Med. 95, 729 (1957). A test compound suspended in 1% methylcellulose was given orally to fasted (17-21 hours) female white mice, 5-20 animals per dose in a double blind test. Aqueous (0.01% phenyl-p-benzoquinone) phenylquinone was injected intraperitoneally at 23 or 30 minutes later using 0.20 ml per mouse. […] The effective analgesic dose for 50% of the mice (ED 50) was calculated by the moving average method of Weil, Biometrics 8, 249 (1952).

For experiment [2] the following is noted: J. Am. Chem. Soc. 72, 712 (1950); cited from earlier work.
[3] abbreviates: mice, phenylquinone i.p., effective analgesic dose for 50% of the mice (Table II), read-out: PQW ED50.
Setting [4] is: mouse (Table III, additional compounds), read-out: Mouse ED50 Analgesia (PQW)-Oral.

Where a name gives a salt, the structure may show the parent alone. Read-outs that look alike come from different tables or passages of the source.

As a reminder, the ED50 is the midpoint of the dose-response relation. Regarding `COc1cccc(C23CCCCC2CN(CC2CC2)CC3)c1` (stereo not drawn), in experiment [1] (setting [3]), the ED50 worked out at 14 mg/kg.
Turning to `Oc1cccc(C23CCCCC2CN(CC2CC2)CC3)c1` (stereo not drawn), the ED50 in experiment [1] (setting [3]) is 20 mg/kg.
Take `COc1cccc(C23CCCCC2CN(CC2CCC2)CC3)c1` (stereo not drawn): in experiment [1] (setting [3]), the ED50 amounted to 18.5 mg/kg.
With `Oc1cccc(C23CCCCC2CN(CC2CCC2)CC3)c1` (stereo not drawn), the ED50 in experiment [1] (setting [3]) was 20 mg/kg.
For the compound `COc1cccc(C23CCCCC2CN(CCc2ccccc2)CC3)c1` (stereo not drawn), the ED50 in experiment [1] (setting [3]) was determined as 14.5 mg/kg.
For `Oc1cccc(C23CCCCC2CN(CCc2ccccc2)CC3)c1` (stereo not drawn), the ED50 in experiment [1] (setting [3]) amounted to 21 mg/kg.
Turning to `COc1cccc(C23CCCCC2CN(CCc2ccc(F)cc2)CC3)c1` (stereo not drawn), the ED50 in experiment [1] (setting [3]) was determined as 33 mg/kg.
Still for that read-out and setting: with `Oc1cccc(C23CCCCC2CN(CCc2ccc(Cl)cc2)CC3)c1` (stereo not drawn) the figure was 28 mg/kg; with `COc1cccc(C23CCCCC2CN(CCc2ccc(Cl)cc2)CC3)c1` (stereo not drawn), 16 mg/kg.
Take `Cc1ccc(CCN2CCC3(c4cccc(O)c4)CCCCC3C2)cc1` (stereo not drawn): the ED50 in experiment [1] (setting [3]) was 9.7 mg/kg.
Same read-out and setting: in the case of `COc1cccc(C23CCCCC2CN(CCc2ccc(C)cc2)CC3)c1` (stereo not drawn) it was 11 mg/kg.
Take `COc1cccc(C23CCCCC2CN(CCc2ccc(N(C)C)cc2)CC3)c1` (stereo not drawn): in experiment [1] (setting [3]), the ED50 amounted to 15.1 mg/kg.
Turning to `COc1cccc(C23CCCCC2CN(CCc2ccco2)CC3)c1` (stereo not drawn), the ED50 in experiment [1] (setting [3]) was 25 mg/kg.
Consider `Oc1cccc(C23CCCCC2CN(CCc2cccs2)CC3)c1` (stereo not drawn), for which the ED50 in experiment [1] (setting [3]) worked out at 24 mg/kg.
The same measure, in the same setting: with `COc1cccc(C23CCCCC2CN(CCc2cccs2)CC3)c1` (stereo not drawn) the figure was 27 mg/kg.
As for `CC(=O)Oc1cccc(C23CCCCC2CN(CCc2cccs2)CC3)c1` (stereo not drawn), the ED50 in experiment [1] (setting [3]) was determined as 27 mg/kg.
As to `CC(C)=CCN1CC[C@]2(c3cccc(O)c3)CCCC[C@@H]2C1` (relative stereo) [CH2CHC(CH3)2 m-OH, N-(3,3-Dimethylallyl)-4a-(m-hydroxyphenyl)-cis-decahydroisoquinoline], the ED50 in experiment [1] (setting [3]) was 40 mg/kg.
Regarding `C=CCN1CC[C@]2(c3cccc(O)c3)CCCC[C@@H]2C1` (relative stereo) [CH2CHCH2 m-OH, N-Allyl-4a-(m-hydroxyphenyl)-cis-decahydroisoquinoline], in experiment [1] (setting [3]), the ED50 was found to be 43 mg/kg.
Consider `CN1CC[C@]2(c3ccc(F)cc3)CCCC[C@@H]2C1` (relative stereo) [CH3 p-F, N-methyl-4a-(p-fluorophenyl)-cis-decahydroisoquinoline], for which the ED50 in experiment [1] (setting [3]) stood at 26 mg/kg.
As for `CN1CC[C@]2(c3ccccc3)CCCC[C@@H]2C1` (relative stereo) [N-Methyl-4a-phenyl-cis-decahydroisoquinoline], the analgesic activity entry in experiment [2] is listed as “low analgesic activity”.
As to `CC(=O)Oc1ccccc1C(=O)O` [Aspirin, reference compound], the ED50 in experiment [1] (setting [3]) is 109 mg/kg.
For `CCCCCN1CCC2(c3cccc(OC)c3)CCCCC2C1` (stereo not drawn) [C5 H11 m-OCH3], in experiment [1] (setting [3]), the median effective dose (ED50) came to 20 mg/kg.
Same read-out and setting: in the case of `CN1CCC2(c3cccc(O)c3)CCCCC2C1` (stereo not drawn) [CH3 m-OH] it was 2.9 mg/kg.
`COc1ccc2c3c1O[C@H]1[C@@H](O)C=C[C@H]4[C@@H](C2)N(C)CC[C@@]341` [Codeine H3 PO4, reference compound]: in experiment [1] (setting [3]), the ED50 stood at 8 mg/kg.
On to `COc1cccc(C23CCN(CCc4ccc(C)cc4)CC2CCC(C)C3)c1` (stereo not drawn) [Example 20-G, N-(p-Tolylethyl)-4a-m-methoxyphenyl-6β-methyl-cis-decahydroisoquinoline], for which, in experiment [1] (setting [4]), the ED50 came out at 28 mg/kg. In experiment [1] (oral, mouse (Table III, additional compounds)), the “Mouse ED50 Analgesia (PQW)-Oral” value is recorded as 22 mg/kg.
As to `CC1CCC2CN(CC3CCC3)CCC2(c2cccc(O)c2)C1` (stereo not drawn) [Example 22-C, N-Cyclobutylmethyl-4a-m-hydroxyphenyl-6β-methyl-cis-decahydroisoquinoline], in experiment [1] (setting [4]), the ED50 was 54 mg/kg.
`COc1cccc(C23CCN(C)CC2CCC(C)C3)c1` (stereo not drawn) [Example 23, N-Methyl-4a-m-methoxyphenyl-6β-methyl-cis-decahydroisoquinoline]: the ED50 in experiment [1] (setting [4]) was 3.5 mg/kg.
In the case of `CC1CCC2CN(CCc3ccccc3)CCC2(c2cccc(O)c2)C1` (stereo not drawn) [Example 27-C, N-Phenethyl-4a-m-hydroxyphenyl-6β-methyl-cis-decahydroisoquinoline], in experiment [1] (setting [4]), the ED50 worked out at 10.8 mg/kg.
With `COc1cccc(C23CCN(Cc4ccco4)CC2CCC(C)C3)c1` (stereo not drawn) [Example 28, N-(2-Furylmethyl)-4a-m-methoxyphenyl-6β-methyl-cis-decahydroisoquinoline], the ED50 in experiment [1] (setting [4]) is 61 mg/kg.
In the case of `CN1CC[C@]23c4c5ccc(O)c4O[C@H]2[C@@H](O)C=C[C@H]3[C@H]1C5` [Morphine H2 SO4, reference compound], the ED50 in experiment [1] (read-out: PQW ED50) stood at 1.6 mg/kg.
For the compound `Oc1ccc2c3c1O[C@H]1[C@@H](O)CC[C@@]4(O)[C@@H](C2)N(CC2CCC2)CC[C@]314` [Nalbuphine HCl, reference compound], in experiment [1] (setting [3]), the ED50 came to 8.4 mg/kg.
Turning to `CC(C)=CCN1CCC2(C)c3cc(O)ccc3CC1C2C.Cl` (stereo not drawn) [Pentazocine HCl, reference compound], in experiment [1] (setting [3]), the ED50 was found to be 57 mg/kg.
